Key:
Type in all cases: binding
[1] = target: kinases (KINOMEscan panel) (Homo sapiens, UniProt P06239); conditions: LCK; NEW KINOMEscan
[2] = target: kinases (KINOMEscan panel) (Homo sapiens, UniProt Q13555); conditions: CAMK2G; NEW KINOMEscan
[3] = target: kinases (KINOMEscan panel) (Homo sapiens, UniProt P07332); conditions: kinase FES; NEW KINOMEscan
[4] = target: kinases (KINOMEscan panel) (Homo sapiens, UniProt Q08345); conditions: DDR1; NEW KINOMEscan
[5] = target: T1, kinases (KINOMEscan panel) (Homo sapiens, UniProt Q12866); conditions: kinase MERTK; NEW KINOMEscan
T1 sequence (Q12866 21-999): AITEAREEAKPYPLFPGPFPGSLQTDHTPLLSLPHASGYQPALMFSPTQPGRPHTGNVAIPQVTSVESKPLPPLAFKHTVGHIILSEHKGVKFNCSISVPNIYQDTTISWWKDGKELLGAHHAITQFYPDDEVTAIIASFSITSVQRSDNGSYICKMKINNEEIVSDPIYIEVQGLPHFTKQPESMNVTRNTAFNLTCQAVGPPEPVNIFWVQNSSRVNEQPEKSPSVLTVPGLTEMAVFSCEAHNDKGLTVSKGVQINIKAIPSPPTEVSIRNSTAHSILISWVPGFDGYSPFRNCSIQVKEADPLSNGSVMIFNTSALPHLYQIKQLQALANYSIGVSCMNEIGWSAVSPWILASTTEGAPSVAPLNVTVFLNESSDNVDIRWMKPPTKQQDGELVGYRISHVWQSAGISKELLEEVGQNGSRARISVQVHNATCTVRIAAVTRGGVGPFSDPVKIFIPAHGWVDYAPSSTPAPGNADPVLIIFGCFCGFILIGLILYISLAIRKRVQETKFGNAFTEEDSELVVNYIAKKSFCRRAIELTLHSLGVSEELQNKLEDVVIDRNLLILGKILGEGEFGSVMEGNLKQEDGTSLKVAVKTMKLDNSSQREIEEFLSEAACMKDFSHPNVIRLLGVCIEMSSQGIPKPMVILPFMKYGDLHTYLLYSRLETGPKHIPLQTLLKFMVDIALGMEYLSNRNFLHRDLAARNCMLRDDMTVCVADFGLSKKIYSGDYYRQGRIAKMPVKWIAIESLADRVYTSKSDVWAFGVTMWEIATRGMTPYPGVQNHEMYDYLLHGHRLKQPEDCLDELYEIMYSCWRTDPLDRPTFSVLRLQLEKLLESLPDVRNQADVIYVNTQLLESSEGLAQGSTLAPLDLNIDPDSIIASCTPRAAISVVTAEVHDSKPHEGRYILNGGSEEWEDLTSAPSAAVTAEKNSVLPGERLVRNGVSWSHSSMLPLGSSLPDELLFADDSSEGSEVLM

[6] = target: T2, kinases (KINOMEscan panel) (Homo sapiens, UniProt O15197); conditions: kinase EPHB6; NEW KINOMEscan
T2 sequence (O15197 32-1021): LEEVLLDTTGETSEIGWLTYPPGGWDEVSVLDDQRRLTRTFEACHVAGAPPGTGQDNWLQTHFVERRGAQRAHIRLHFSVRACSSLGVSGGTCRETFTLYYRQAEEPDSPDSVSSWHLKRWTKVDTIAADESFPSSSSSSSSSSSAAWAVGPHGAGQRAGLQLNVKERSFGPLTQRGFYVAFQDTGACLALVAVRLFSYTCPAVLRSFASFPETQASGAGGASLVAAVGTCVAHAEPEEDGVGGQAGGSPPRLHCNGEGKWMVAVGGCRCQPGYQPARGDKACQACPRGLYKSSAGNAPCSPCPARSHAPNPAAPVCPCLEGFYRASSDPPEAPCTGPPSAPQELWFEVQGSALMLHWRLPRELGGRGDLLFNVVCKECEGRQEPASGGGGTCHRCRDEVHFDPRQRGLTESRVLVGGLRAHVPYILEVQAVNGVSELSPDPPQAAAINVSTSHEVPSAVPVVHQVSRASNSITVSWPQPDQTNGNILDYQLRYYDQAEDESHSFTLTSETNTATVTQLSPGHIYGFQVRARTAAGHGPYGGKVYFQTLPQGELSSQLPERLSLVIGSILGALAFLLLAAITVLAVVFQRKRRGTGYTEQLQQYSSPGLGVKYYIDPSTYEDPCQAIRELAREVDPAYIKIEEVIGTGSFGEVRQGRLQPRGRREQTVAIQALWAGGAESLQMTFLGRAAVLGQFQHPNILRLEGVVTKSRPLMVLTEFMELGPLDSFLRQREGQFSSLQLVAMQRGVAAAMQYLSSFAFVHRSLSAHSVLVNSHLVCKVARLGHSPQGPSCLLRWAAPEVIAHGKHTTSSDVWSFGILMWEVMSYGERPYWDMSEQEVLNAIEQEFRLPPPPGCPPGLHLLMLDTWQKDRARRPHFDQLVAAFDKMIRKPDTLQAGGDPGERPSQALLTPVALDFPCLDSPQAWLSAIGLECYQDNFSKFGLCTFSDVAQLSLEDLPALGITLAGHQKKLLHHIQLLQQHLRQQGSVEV

[7] = target: T3, kinases (KINOMEscan panel) (Homo sapiens, UniProt Q9UPZ9); conditions: CILK1; NEW KINOMEscan
T3 sequence (Q9UPZ9 1-632): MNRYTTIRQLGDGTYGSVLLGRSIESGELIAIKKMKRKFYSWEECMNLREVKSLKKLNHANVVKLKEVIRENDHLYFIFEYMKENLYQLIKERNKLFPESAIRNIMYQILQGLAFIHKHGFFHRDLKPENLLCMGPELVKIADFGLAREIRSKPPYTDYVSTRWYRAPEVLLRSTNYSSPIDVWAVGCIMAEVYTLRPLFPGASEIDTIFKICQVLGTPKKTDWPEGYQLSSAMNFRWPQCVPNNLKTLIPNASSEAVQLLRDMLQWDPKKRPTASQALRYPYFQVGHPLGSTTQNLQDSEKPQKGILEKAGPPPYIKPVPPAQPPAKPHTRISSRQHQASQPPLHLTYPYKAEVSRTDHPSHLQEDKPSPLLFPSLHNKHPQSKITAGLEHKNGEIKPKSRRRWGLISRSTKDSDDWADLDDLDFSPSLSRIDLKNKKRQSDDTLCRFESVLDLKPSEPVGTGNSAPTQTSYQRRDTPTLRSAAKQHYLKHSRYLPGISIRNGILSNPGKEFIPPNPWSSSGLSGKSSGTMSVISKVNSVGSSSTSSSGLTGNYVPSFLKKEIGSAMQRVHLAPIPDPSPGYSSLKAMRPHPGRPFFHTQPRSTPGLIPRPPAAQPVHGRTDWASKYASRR

Chain of kinases (KINOMEscan panel) (Homo sapiens, UniProt Q13555) (Q13555 whole entry): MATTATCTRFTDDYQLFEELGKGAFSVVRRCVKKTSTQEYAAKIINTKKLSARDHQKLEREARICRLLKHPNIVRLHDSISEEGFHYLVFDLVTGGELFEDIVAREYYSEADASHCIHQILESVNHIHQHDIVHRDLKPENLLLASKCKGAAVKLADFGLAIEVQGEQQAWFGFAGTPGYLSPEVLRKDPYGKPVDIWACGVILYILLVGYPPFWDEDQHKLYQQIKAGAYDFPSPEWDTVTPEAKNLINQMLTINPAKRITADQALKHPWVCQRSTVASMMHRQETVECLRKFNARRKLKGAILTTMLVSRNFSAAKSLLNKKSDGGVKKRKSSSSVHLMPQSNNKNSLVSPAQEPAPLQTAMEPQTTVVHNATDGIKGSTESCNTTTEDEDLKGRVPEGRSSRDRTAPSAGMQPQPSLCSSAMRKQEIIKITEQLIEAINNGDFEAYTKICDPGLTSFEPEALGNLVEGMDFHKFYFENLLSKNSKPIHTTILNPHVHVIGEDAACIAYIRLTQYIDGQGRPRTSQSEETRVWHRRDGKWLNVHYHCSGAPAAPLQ
Chain of kinases (KINOMEscan panel) (Homo sapiens, UniProt P06239) (P06239 whole entry): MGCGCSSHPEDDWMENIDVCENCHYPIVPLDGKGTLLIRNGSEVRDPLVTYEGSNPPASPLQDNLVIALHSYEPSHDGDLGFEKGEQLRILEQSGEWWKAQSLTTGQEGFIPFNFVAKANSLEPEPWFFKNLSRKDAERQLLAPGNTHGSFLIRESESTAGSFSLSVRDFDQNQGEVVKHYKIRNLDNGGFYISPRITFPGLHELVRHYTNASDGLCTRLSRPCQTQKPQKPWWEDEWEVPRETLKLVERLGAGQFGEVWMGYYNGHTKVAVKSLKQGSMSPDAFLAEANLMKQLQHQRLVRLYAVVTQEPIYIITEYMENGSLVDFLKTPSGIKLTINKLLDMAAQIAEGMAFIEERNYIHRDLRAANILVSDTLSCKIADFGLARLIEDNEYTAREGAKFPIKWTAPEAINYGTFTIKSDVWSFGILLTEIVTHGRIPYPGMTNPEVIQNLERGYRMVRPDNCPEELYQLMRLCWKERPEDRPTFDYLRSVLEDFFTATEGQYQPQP
Chain of kinases (KINOMEscan panel) (Homo sapiens, UniProt P07332) (P07332 whole entry): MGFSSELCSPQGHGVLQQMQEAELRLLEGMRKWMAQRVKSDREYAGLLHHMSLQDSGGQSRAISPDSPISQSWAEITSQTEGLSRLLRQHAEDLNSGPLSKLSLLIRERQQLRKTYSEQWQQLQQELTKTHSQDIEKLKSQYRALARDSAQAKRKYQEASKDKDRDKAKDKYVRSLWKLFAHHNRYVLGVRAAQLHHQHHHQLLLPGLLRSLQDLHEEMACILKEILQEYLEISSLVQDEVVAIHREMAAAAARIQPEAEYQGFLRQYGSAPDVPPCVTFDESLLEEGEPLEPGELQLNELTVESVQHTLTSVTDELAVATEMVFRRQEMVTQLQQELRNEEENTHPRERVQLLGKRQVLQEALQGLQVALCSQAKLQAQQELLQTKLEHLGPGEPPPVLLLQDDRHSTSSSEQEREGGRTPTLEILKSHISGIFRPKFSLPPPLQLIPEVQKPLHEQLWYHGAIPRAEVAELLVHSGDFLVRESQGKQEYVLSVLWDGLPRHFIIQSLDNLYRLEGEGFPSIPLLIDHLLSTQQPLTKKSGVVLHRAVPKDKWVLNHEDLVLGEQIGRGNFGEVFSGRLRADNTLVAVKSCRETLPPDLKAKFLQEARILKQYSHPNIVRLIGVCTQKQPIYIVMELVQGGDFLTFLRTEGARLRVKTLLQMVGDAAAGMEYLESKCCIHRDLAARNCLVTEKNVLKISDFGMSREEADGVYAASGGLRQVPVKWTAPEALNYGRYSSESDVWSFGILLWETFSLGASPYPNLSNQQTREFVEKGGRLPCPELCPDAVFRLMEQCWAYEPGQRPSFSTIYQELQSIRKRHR
Chain of kinases (KINOMEscan panel) (Homo sapiens, UniProt Q08345) (Q08345 19-913): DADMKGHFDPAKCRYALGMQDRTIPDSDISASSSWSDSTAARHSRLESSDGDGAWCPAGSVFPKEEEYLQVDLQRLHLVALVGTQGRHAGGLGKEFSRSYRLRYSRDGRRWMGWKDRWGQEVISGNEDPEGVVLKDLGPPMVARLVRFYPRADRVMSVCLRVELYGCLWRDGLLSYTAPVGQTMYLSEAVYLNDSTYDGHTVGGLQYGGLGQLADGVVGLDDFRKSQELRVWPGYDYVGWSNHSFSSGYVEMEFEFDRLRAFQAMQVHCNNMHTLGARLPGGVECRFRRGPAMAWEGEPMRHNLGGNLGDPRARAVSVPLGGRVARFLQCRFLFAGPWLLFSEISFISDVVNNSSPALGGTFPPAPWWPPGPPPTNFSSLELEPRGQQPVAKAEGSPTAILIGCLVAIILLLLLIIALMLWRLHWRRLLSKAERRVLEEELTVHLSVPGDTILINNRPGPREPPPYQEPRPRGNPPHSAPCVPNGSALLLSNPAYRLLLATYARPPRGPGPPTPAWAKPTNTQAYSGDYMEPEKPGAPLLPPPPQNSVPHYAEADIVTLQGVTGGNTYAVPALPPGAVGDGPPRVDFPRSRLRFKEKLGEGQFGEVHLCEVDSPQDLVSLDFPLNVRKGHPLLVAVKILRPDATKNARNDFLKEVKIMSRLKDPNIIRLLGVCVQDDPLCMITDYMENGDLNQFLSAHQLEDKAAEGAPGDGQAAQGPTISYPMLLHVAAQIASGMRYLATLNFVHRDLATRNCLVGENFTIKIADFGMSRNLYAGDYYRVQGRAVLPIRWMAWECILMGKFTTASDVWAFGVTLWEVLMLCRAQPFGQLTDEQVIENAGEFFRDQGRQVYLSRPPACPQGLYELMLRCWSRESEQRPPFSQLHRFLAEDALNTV

| SMILES | KINOMEscan LCK [1] | KINOMEscan CAMK2G [2] | KINOMEscan FES [3] | KINOMEscan DDR1 [4] | KINOMEscan MERTK [5] | KINOMEscan EPHB6 [6] | KINOMEscan CILK1 [7] |
| --- | --- | --- | --- | --- | --- | --- | --- |
| Cc1cccc(-c2nc(Nc3ccc4nn(C)cc4c3)c3ccccc3n2)n1 [NK167] | 0 | 0 | 0 | 0 | 0 | 0 | 0 |
| Cc1cccc(-c2nc(N(C)c3ccc4ncsc4c3)c3ccccc3n2)n1 [NK-161] | 2 | 0 | 4 | 0 | 11 | 0 | 0 |
